Laboratory results from the supplement of paper PMC6045584.
± gives the standard deviation of the averaged measurements.

Columns and labels:
VINORELBINE = compound: CCC1=C[C@@H]2CN(C1)Cc1c([nH]c3ccccc13)[C@@](C(=O)OC)(c1cc3c(cc1OC)N(C)[C@H]1[C@@](O)(C(=O)OC)[C@H](OC(C)=O)[C@]4(CC)C=CCN5CC[C@]31[C@@H]54)C2 [VINORELBINE]; test: surviving fraction relative to DMSO-only wells; higher = less growth inhibition; conditions: exposure time: 5 days
Outline: (§1)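 A line counted only if its three screens reached replicate Pearson r >0.7 and median Z' >0.3. Tumour cells in log phase were seeded at 250–500 per well in 384-well plates and, after 24 hours, kept in continuous contact with inhibitors at 0.5, 1, 5, 10, 50, 100, 500 and 1000 nM for five days. Surviving fraction was taken from CellTiter-Glo luminescence relative to the median of DMSO-only wells.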

SUNITINIB = compound: CCN(CC)CCNC(=O)c1c(C)[nH]c(/C=C2\C(=O)Nc3ccc(F)cc32)c1C [SUNITINIB]; test: as above; conditions: exposure time: 5 days
Outline: as §1

Row | Test System | surviving fraction (VINORELBINE; 0.5 nM) | surviving fraction (VINORELBINE; 1 nM) | surviving fraction (VINORELBINE; 5 nM) | surviving fraction (VINORELBINE; 10 nM) | surviving fraction (VINORELBINE; 50 nM) | surviving fraction (VINORELBINE; 100 nM) | surviving fraction (VINORELBINE; 500 nM) | surviving fraction (VINORELBINE; 1000 nM) | surviving fraction (SUNITINIB; 0.5 nM) | surviving fraction (SUNITINIB; 1 nM) | surviving fraction (SUNITINIB; 5 nM) | surviving fraction (SUNITINIB; 10 nM) | surviving fraction (SUNITINIB; 50 nM) | surviving fraction (SUNITINIB; 100 nM) | surviving fraction (SUNITINIB; 500 nM) | surviving fraction (SUNITINIB; 1000 nM)
1 | HCC1954 BREAST | 1.08 ± 0.15 | 0.9287 ± 0.0046 | 0.576 ± 0.01 | 0.311 ± 0.011 | 0.1412 ± 0.0011 | 0.13 ± 0.00071 | 0.091 ± 0.0021 | 0.144 ± 0.025 | 0.363 ± 0.098 | 0.365 ± 0.15 | 0.38 ± 0.16 | 0.434 ± 0.2 | 0.5 ± 0.045 | 0.555 ± 0.052 | 0.616 ± 0.092 | 0.65 ± 0.0088
2 | HCT15 LARGE INTESTINE | 1.1 ± 0.066 | 1.06 ± 0.043 | 1.04 ± 0.085 | 0.957 ± 0.058 | 0.99 ± 0.064 | 0.819 ± 0.093 | 0.183 ± 0.026 | 0.106 ± 0.0059 | 0.882 ± 0.015 | 0.73 ± 0.028 | 0.816 ± 0.034 | 0.449 ± 0.021 | 0.952 ± 0.049 | – | 0.855 ± 0.08 | 0.119 ± 0.015
3 | HELA CERVIX | 1.05 ± 0.054 | 1.02 ± 0.044 | 1.04 ± 0.015 | 0.778 ± 0.043 | 0.145 ± 0.0031 | 0.0838 ± 0.0042 | 0.0347 ± 0.0015 | 0.0298 ± 0.0028 | 0.906 ± 0.047 | 0.892 ± 0.046 | – | 0.853 ± 0.069 | 0.995 ± 0.044 | 0.948 ± 0.052 | 1.03 ± 0.035 | 0.745 ± 0.05
4 | HMLE3 BREAST | 0.993 ± 0.017 | 0.965 ± 0.053 | 1.07 ± 0.044 | 0.987 ± 0.013 | 0.125 ± 0.029 | 0.053 ± 0.012 | 0.0317 ± 0.0067 | 0.0373 ± 0.005 | 0.887 ± 0.037 | 0.715 ± 0.058 | 0.816 ± 0.019 | 0.241 ± 0.053 | 0.867 ± 0.064 | 0.832 ± 0.061 | 0.498 ± 0.018 | 0.108 ± 0.0078
5 | HMT3552 BREAST | 1.05 | 1.05 | 0.59 | 0.209 | 0.104 | 0.117 | 0.253 | 0.221 | – | 0.96 | – | – | – | 1.21 | 0.423 | 0.203
6 | HOS BONE | 1.05 ± 0.05 | 1.01 ± 0.011 | 1.05 ± 0.034 | 0.967 ± 0.031 | 0.13 ± 0.012 | 0.0783 ± 0.0015 | 0.03 ± 0.0035 | 0.033 ± 0.0027 | 0.921 ± 0.015 | 0.937 ± 0.025 | 0.8943 ± 0.0061 | 0.884 ± 0.021 | 0.954 ± 0.01 | 0.9297 ± 0.009 | 0.786 ± 0.017 | 0.471 ± 0.0095
7 | HOSMNG BONE | 0.938 ± 0.14 | 0.956 ± 0.1 | 0.963 ± 0.11 | 0.955 ± 0.15 | 0.694 ± 0.1 | 0.415 ± 0.028 | 0.112 ± 0.018 | 0.0593 ± 0.01 | 0.939 ± 0.1 | – | 0.969 ± 0.13 | – | 1.06 ± 0.12 | 0.999 ± 0.18 | 0.803 ± 0.072 | 0.44 ± 0.037
8 | HS57T BREAST | 1.01 ± 0.08 | 0.957 ± 0.03 | 0.682 ± 0.0066 | 0.118 ± 0.011 | 0.07 ± 0.002 | 0.0703 ± 0.013 | 0.0633 ± 0.0096 | 0.0723 ± 0.0084 | 0.9 ± 0.077 | 0.867 ± 0.027 | – | 0.919 ± 0.095 | – | 0.863 ± 0.011 | 0.572 ± 0.035 | 0.406 ± 0.027
9 | HS578T BREAST | 1.13 ± 0.09 | 0.976 ± 0.17 | 0.423 ± 0.021 | 0.276 ± 0.027 | 0.153 ± 0.019 | 0.138 ± 0.004 | 0.173 ± 0.011 | 0.185 ± 0.014 | 0.838 ± 0.15 | 0.824 ± 0.057 | – | 0.881 ± 0.049 | – | – | 0.871 ± 0.073 | 0.426 ± 0.054
10 | HSSYII SYNOVIAL | 0.891 ± 0.082 | 0.836 ± 0.032 | 0.308 ± 0.033 | 0.0998 ± 0.006 | 0.0498 ± 0.003 | 0.0455 ± 0.0052 | 0.0458 ± 0.002 | 0.0588 ± 0.0063 | 0.771 ± 0.076 | 0.694 ± 0.029 | 0.755 ± 0.012 | 0.216 ± 0.01 | – | 0.765 ± 0.045 | 0.418 ± 0.02 | 0.114 ± 0.0013
11 | HT1080 SOFT TISSUE | 1.02 ± 0.02 | 1.02 ± 0.016 | 0.903 ± 0.018 | 0.503 ± 0.01 | 0.0517 ± 0.0055 | 0.0363 ± 0.00058 | 0.038 ± 0.002 | 0.0363 ± 0.0015 | 0.9787 ± 0.0091 | – | 0.997 ± 0.021 | 0.97 ± 0.07 | – | 1.1 ± 0.031 | 0.766 ± 0.032 | 0.559 ± 0.032
12 | HU09 BONE | 1.09 ± 0.035 | 1.02 ± 0.11 | 0.981 ± 0.1 | 0.558 ± 0.071 | 0.124 ± 0.015 | 0.0583 ± 0.0064 | 0.0547 ± 0.004 | 0.0747 ± 0.0045 | 0.865 ± 0.14 | – | 0.768 ± 0.076 | 0.637 ± 0.048 | 0.498 ± 0.051 | 0.485 ± 0.073 | 0.288 ± 0.035 | 0.161 ± 0.011
13 | JIMT1 BREAST | 0.955 ± 0.036 | 0.9598 ± 0.0091 | 0.512 ± 0.025 | 0.304 ± 0.03 | 0.127 ± 0.011 | 0.117 ± 0.0056 | 0.113 ± 0.0063 | 0.11 ± 0.0053 | 0.826 ± 0.025 | 0.81 ± 0.07 | 0.841 ± 0.041 | 0.848 ± 0.069 | 1.05 ± 0.056 | 1.04 ± 0.075 | 0.776 ± 0.098 | 0.54 ± 0.063
14 | JURKAT HAEMATOPOIETIC AND LYMPHOID TISSUE | 1.07 ± 0.02 | 1.066 ± 0.0099 | 0.952 ± 0.041 | 0.168 ± 0.034 | 0.0297 ± 0.00058 | 0.0247 ± 0.00058 | 0.025 | 0.0233 ± 0.00058 | 1.03 ± 0.023 | 1 ± 0.015 | 1.009 ± 0.0064 | 1.01 ± 0.025 | 1.01 ± 0.026 | 1.04 ± 0.012 | 0.677 ± 0.012 | 0.0883 ± 0.0087
15 | KPD BONE | 0.953 ± 0.04 | 0.915 ± 0.055 | 0.96 ± 0.087 | 0.839 ± 0.093 | 0.5 ± 0.011 | 0.457 ± 0.035 | 0.445 ± 0.011 | 0.383 ± 0.026 | 0.898 ± 0.04 | 0.875 ± 0.031 | 0.928 ± 0.042 | – | 0.9567 ± 0.007 | 0.972 ± 0.022 | 0.73 ± 0.031 | 0.441 ± 0.046
16 | LM7 BONE | 0.973 ± 0.062 | 0.9683 ± 0.0047 | 0.757 ± 0.023 | 0.499 ± 0.062 | 0.115 ± 0.0052 | 0.105 ± 0.0081 | 0.0943 ± 0.011 | 0.122 ± 0.013 | 0.786 ± 0.068 | 0.767 ± 0.028 | 0.81 ± 0.087 | 0.731 ± 0.05 | 0.93 ± 0.039 | 0.794 ± 0.016 | 0.342 ± 0.009 | 0.177 ± 0.018
17 | MCF7 BREAST | 0.932 ± 0.027 | 0.914 ± 0.025 | 0.861 ± 0.058 | 0.817 ± 0.022 | 0.466 ± 0.017 | 0.428 ± 0.027 | 0.357 ± 0.0083 | 0.221 ± 0.018 | 0.786 ± 0.02 | 0.822 ± 0.023 | 0.8113 ± 0.0079 | 0.706 ± 0.0095 | – | 0.842 ± 0.015 | 0.751 ± 0.012 | 0.607 ± 0.015
18 | MDAMB134 BREAST | 0.97 ± 0.1 | 0.842 ± 0.025 | 0.751 ± 0.072 | 0.691 ± 0.082 | 0.728 ± 0.016 | 0.708 ± 0.05 | 0.69 ± 0.085 | 0.767 ± 0.091 | 0.675 ± 0.021 | 0.777 ± 0.087 | 0.715 ± 0.14 | 0.675 ± 0.022 | 0.887 ± 0.067 | – | 1.05 ± 0.22 | –
19 | MDAMB157 BREAST | 0.915 ± 0.076 | 0.872 ± 0.076 | 0.748 ± 0.084 | 0.465 ± 0.045 | 0.11 ± 0.026 | 0.0867 ± 0.013 | 0.0783 ± 0.015 | 0.12 ± 0.025 | 0.794 ± 0.024 | 0.802 ± 0.08 | 0.87 ± 0.07 | 0.869 ± 0.12 | 0.83 ± 0.032 | 0.74 ± 0.072 | 0.613 ± 0.064 | 0.404 ± 0.062
20 | MDAMB231 BREAST | 0.976 ± 0.035 | 0.998 ± 0.02 | 0.904 ± 0.027 | 0.681 ± 0.027 | 0.238 ± 0.008 | 0.244 ± 0.0099 | 0.189 ± 0.0019 | 0.172 ± 0.009 | 0.955 ± 0.016 | 0.9679 ± 0.0028 | 0.979 ± 0.012 | 0.976 ± 0.033 | 1.09 ± 0.017 | 1.12 ± 0.017 | 1.04 ± 0.0064 | 0.848 ± 0.011
21 | MDAMB361 BREAST | 0.791 ± 0.062 | 0.786 ± 0.076 | 0.695 ± 0.056 | 0.603 ± 0.016 | 0.607 ± 0.03 | 0.566 ± 0.04 | 0.5787 ± 0.0021 | 0.502 ± 0.058 | 0.683 ± 0.049 | 0.717 ± 0.023 | 0.696 ± 0.058 | 0.651 ± 0.025 | 0.82 ± 0.069 | – | 0.8 ± 0.011 | 0.527 ± 0.054
22 | MDAMB436 BREAST | 0.9 ± 0.064 | 0.88 ± 0.045 | 0.796 ± 0.12 | 0.742 ± 0.038 | 0.591 ± 0.032 | 0.51 ± 0.033 | 0.211 ± 0.013 | 0.221 ± 0.018 | 0.761 ± 0.07 | 0.78 ± 0.046 | 0.79 ± 0.011 | 0.79 ± 0.099 | 0.85 ± 0.087 | 0.913 ± 0.071 | 0.718 ± 0.061 | 0.596 ± 0.023
